As for `CC1(C)C(=O)N(Cl)C(=O)N1Br`, the melting point was found to be 164 °C.

For `Cc1ccc([N+](=O)[O-])cc1C(=O)O`, the melting point came to 179 °C.

`CCN(CC)c1cccc(O)c1` showed a melting point of 78 °C.

`O=Cc1ccc2c(Br)cccc2c1` came in with a melting point of 78 °C.

Regarding `Cc1cc2c(cc1C)C(=O)c1ccccc1C2=O`, the melting point came out at 211 °C.

As to `COC(=O)c1ccc(N)nc1`, the melting point fell in the range of 159 to 160 °C.

In turn, `COc1ccc(NC(=O)c2ccccc2)cc1` came in with a melting point of 153 °C.

Turning to `O=S(=O)(O)c1cccnc1`, the melting point amounted to 300 °C.

The compound `Cc1ccc([Si](C)(c2ccc(C)cc2)c2ccc(C)cc2)cc1` yielded a melting point of 92 °C.

For `Cc1ccccc1CS(=O)(=O)Cl`, the melting point fell in the range of 52 to 53 °C.

Compound `CC(O)CC(C)O` (stereo unspecified) returned a melting point of 50 to 52 °C.

`NNC(=O)COc1ccccc1CSc1ccc(Cl)cc1` gave a melting point of 118 to 121 °C.

Consider `Cc1cccc2cc3c(ccc4ccccc43)cc12`, for which the melting point turned out to be 156 °C.

Take `CCOC(=O)c1cc2cc3cc(C(=O)OCC)c(C)nc3cc2nc1C`: the melting point amounted to 167 °C.

`FC(F)(F)C(F)(C(F)(F)F)C(F)(C(F)(F)F)C(F)(F)F` gave a melting point of -16.7 °C.

The compound `ClCc1ccc(OCc2ccccc2)c(OCc2ccccc2)c1` displayed a melting point of 41 to 44 °C.

As for `COc1ccc2[nH]cnc2c1`, the melting point turned out to be 122 °C.

On to `O=C(O)c1cc2cc(Cl)cc(Cl)c2oc1=O`, for which the melting point fell in the range of 198 to 200 °C.

Compound `O=Cc1cccc(-n2cccn2)c1` gave a melting point of 38 to 39 °C.

In turn, `Cc1c(C)n2c(CBr)c(C)c(=O)n2c1=O` gave a melting point of 152 °C.

Take `OCc1ccc(-c2nccs2)cc1`: the melting point is 94 to 97 °C.

For the compound `Cc1cccc(NN=C2C(=O)N(C)C(=O)N(C)C2=O)c1`, the melting point was found to be 228 °C.

On to `Cn1cc(NC(=O)OC(C)(C)C)cc1C(=O)O`, for which the melting point was 138 to 143 °C.

As for `NS(=O)(=O)c1cc([N+](=O)[O-])c(Cl)s1`, the melting point fell in the range of 160 to 162 °C.

For `CN(C)C1C(=O)C(=C(N)O)C(=O)C2(O)C(=O)C3=C(O)c4c(O)ccc(Cl)c4C(O)C3CC12` (stereo unspecified), the melting point came to 222 °C.

On to `c1cncc(-c2cccnc2)c1`, for which the melting point came to 68 °C.

In turn, `CCOc1ccc2[nH]c(S)nc2c1` returned a melting point of 249 °C.

Take `Nc1c(Br)cc(C(F)(F)F)cc1Br`: the melting point stood at 38 °C.

For `COc1ccc(C(=O)CC(=O)C(F)(F)F)cc1`, the melting point lay in the range of 57 to 58 °C.

In the case of `CCOC(=O)N1CCc2cc(OC)c(OC)cc2C1C#N` (stereo unspecified), the melting point fell in the range of 110 to 112 °C.

Turning to `O=C(O)C1(C(F)(F)F)CC1`, the melting point amounted to 88 °C.

The compound `Oc1ccc(Br)c(O)c1` returned a melting point of 103 °C.

In turn, `COC(=O)c1ccccn1` had a melting point of 18.7 °C.

`O=C(C=Cc1ccc(-c2ccccc2)o1)c1ccccc1` gave a melting point of 98 to 99 °C.

On to `O=c1[nH]c2ccccc2nc(C(F)(F)F)c1=NNc1cc(-c2ccccc2)n[nH]1`, for which the melting point turned out to be 159 °C.

Take `CC12CCC(C(C(=O)Oc3ccccc3)C1)C2(C)C` (stereo unspecified): the melting point turned out to be 41 °C.

Take `CCCCCCCCCCCI`: the melting point stood at 2 °C.

For `COc1ccc(F)cc1C#N`, the melting point turned out to be 117 °C.

As to `CC12C=CC3=C4CCC(=O)C=C4CCC3C1CCC2O` (stereo unspecified), the melting point is 93 °C.

In turn, `CC(=O)Nc1ccc(Br)cc1C` came in with a melting point of 160 to 163 °C.

Compound `CC12CCC(C(COC(=O)c3ccc([N+](=O)[O-])cc3)C1)C2(C)C` (stereo unspecified) yielded a melting point of 100 °C.

For `Clc1cc(Cl)c2nsnc2c1Cl`, the melting point stood at 122 °C.

`OC(c1ccccc1)(c1ccccc1)C1CCNCC1` yielded a melting point of 160 °C.

In the case of `Cc1nccn1-c1ccccc1CN`, the melting point lay in the range of 48 to 48.5 °C.

In turn, `OC1(C2(O)CCCCC2)CCCCC1` gave a melting point of 127 °C.

The compound `C#CC1(O)CCC2C3CCc4cc(O)ccc4C3C(OC)CC21C` (stereo unspecified) showed a melting point of 280 °C.

The compound `NN=C1c2ccccc2C(=O)C1C(=O)C(c1ccccc1)c1ccccc1` (stereo unspecified) gave a melting point of 241 to 243 °C.

In turn, `C=Cc1cc(C)ccc1C` came in with a melting point of -35 °C.

The compound `CCc1ccc(CCl)cc1` displayed a melting point of -21 °C.

In the case of `C#CC1(O)CCC2C3CC=C4CC(O)CCC4(C)C3CCC21C` (stereo unspecified), the melting point stood at 248 °C.

With `COc1ccc(C(=O)Cc2c(CCN(C)C)cc3c(c2OC)OCO3)c(C(=O)O)c1OC`, the melting point stood at 138 °C.

As to `COc1cc(OC)n2nc(S(=O)(=O)Nc3c(Cl)ccc(C)c3Cl)nc2n1`, the melting point was 211 °C.

`O=C1/C(=N\Nc2ccc(Br)cc2)C(C(F)(F)F)=NN1c1ccccc1` registered a melting point of 175 °C.

The compound `O=C1/C(=N/Nc2cccc(C(F)(F)F)c2)C(C(F)(F)F)=NN1c1ccccc1` yielded a melting point of 160 °C.

As to `Oc1ccc(C2(c3ccc(O)cc3)CC3CC2C2CCCC32)cc1` (stereo unspecified), the melting point was 219 to 221 °C.

`Cc1c(N)cc([N+](=O)[O-])cc1[N+](=O)[O-]` gave a melting point of 174 °C.

`c1ccc(C2CCc3ccccc3O2)cc1` (stereo unspecified) gave a melting point of 46.3 °C.

`c1ccc(-c2cc3ccccc3cn2)cc1` gave a melting point of 103 °C.

For the compound `C=C(C)C(=O)Nc1ccc(Cl)c(Cl)c1`, the melting point came to 128 °C.

As to `CCCCCCCOC(=O)CCCCCC`, the melting point was -33 °C.

As to `BrCC1CO1` (stereo unspecified), the melting point is -40 °C.

Turning to `Cc1cccc2c1CCCC2`, the melting point is -23 °C.

On to `COC(=O)c1cccc(C(=O)O)c1`, for which the melting point stood at 166 °C.

Regarding `Cc1ccc(S(=O)(=O)OCCOCCOCCOS(=O)(=O)c2ccc(C)cc2)cc1`, the melting point is 80 to 82 °C.

The compound `FC(F)(F)C(F)(F)C(F)(F)F` came in with a melting point of -148 °C.

The compound `Brc1ccc(N2CCCC2)cc1` showed a melting point of 105 to 106 °C.

`COCc1c(C(=O)OC(C)C)ncc2[nH]c3ccc(OCc4ccccc4)cc3c12` registered a melting point of 150 °C.

As for `CC1(C)CC(=O)C(=Cc2ccc(-c3ccc(Cl)cc3)o2)C(=O)C1`, the melting point was found to be 206 °C.

`CC(C)CCCCCCCOC(=O)CCCCC(=O)OCCCCCCCC(C)C` had a melting point of 27.4 °C.

Compound `CCNc1nc2c(cc1C(=O)OCC)c(=O)oc1ccccc12` yielded a melting point of 186 °C.

As for `O=C(O)c1csc(N2CCOCC2)n1`, the melting point lay within 175 to 177 °C.

`CNCc1ccc(-c2ncccn2)cc1` came in with a melting point of 49.5 to 54.9 °C.

Take `COc1cc(C=CC(=O)O)ccc1OCc1ccccc1`: the melting point turned out to be 192 °C.

The compound `CC(C)C1COC2(C)C=CC(=O)N12` (stereo unspecified) showed a melting point of 46 to 50 °C.

For `CN1N=C2c3ccccc3CCC2C1c1ccc(Cl)cc1` (stereo unspecified), the melting point lay within 199 to 201 °C.

On to `CC(C)CC#N`, for which the melting point is -101 °C.

On to `CCOC(=O)c1nn(-c2ccc(Cl)cc2Cl)c(-c2ccc([N+](=O)[O-])cc2)c1S(=O)(=O)c1ccccc1`, for which the melting point came out at 118 °C.

`CCOC(=O)c1c(NC(=O)Nc2ccccc2)sc2c1CCCC2` showed a melting point of 150 to 152 °C.

Compound `ClC1=C(Cl)C2(Cl)C3C(c4ccccc4C4C3C3(Cl)C(Cl)=C(Cl)C4(Cl)C3(Cl)Cl)C1(Cl)C2(Cl)Cl` (stereo unspecified) yielded a melting point of 217 to 220 °C.

`NC[C@H]1CC[C@H](C(=O)O)CC1` had a melting point of 300 °C.

Compound `Brc1ccc2[nH]c3ccccc3c2c1` showed a melting point of 195 to 197 °C.

In turn, `O=C(/C=C/c1ccc(-c2ccc(Br)cc2)o1)c1ccccc1` gave a melting point of 141 to 142 °C.

`O=C(O)C(F)(F)C(F)(F)C(F)(F)C(F)(F)C(F)(F)C(F)(C(F)(F)F)C(F)(F)F` had a melting point of 33 to 36 °C.

`NNC(=O)c1snnc1-c1ccccc1` showed a melting point of 129 to 130 °C.

With `CSc1nc2ccccc2s1`, the melting point is 44 °C.

For the compound `OCCN1CCN(CCCN2c3ccccc3C=Cc3ccccc32)CC1`, the melting point came out at 100 °C.

Compound `FC(F)(F)OC(F)(I)C(F)(F)F` (stereo unspecified) yielded a melting point of 44 °C.

`c1cnc2c(c1)ccc1ncccc12` yielded a melting point of 79 °C.

`O=C(Nc1cccc(Cl)c1)C(C(F)(F)F)C(F)(F)F`: the melting point was found to be 154 °C.

Consider `Clc1ccc(I)cc1Cl`, for which the melting point is 30 °C.

Compound `Cc1cc(Cl)cc(C)c1N` displayed a melting point of 48 °C.

Turning to `CC1=C(C(=O)OC(C)C)C(c2ccccc2)NC(=S)N1` (stereo unspecified), the melting point worked out at 177 °C.

For `c1ccc(SSc2ccccn2)nc1`, the melting point stood at 58 °C.

`CCCC(=O)Nc1ccc(OCC(O)CNC(C)C)c(C(C)=O)c1` (stereo unspecified): the melting point turned out to be 119 °C.

`O=C(Cl)c1ccccc1I` gave a melting point of 30 to 32 °C.

`O=C(O)C1CC2CCC1C2` (stereo unspecified) returned a melting point of 40 °C.

Turning to `CCCCCCC(=O)CCCCCC`, the melting point amounted to 33 °C.

In turn, `Nc1ccc(N=O)c(N)n1` displayed a melting point of 260 to 266 °C.

`COC(=O)c1cnc(S)n1C` displayed a melting point of 207 °C.

As for `c1cc2c3c(cccc3c1)-c1nc3ccccc3nc1-2`, the melting point lay in the range of 239 to 242 °C.

In the case of `O=C1c2ccccc2C(=O)C1c1ccc(F)cc1`, the melting point worked out at 120 °C.

For the compound `O=C(Nc1cccnc1Cl)c1cccc(C(F)(F)F)c1`, the melting point was in the range of 83 to 85 °C.

In turn, `CCC(Br)(CC)C(=O)NC(N)=O` returned a melting point of 118 °C.

For `CCC(C(=O)Nc1ccc(C)cc1)C1CCC(OC)CC1` (stereo unspecified), the melting point was found to be 144 °C.

On to `ICCCI`, for which the melting point was -20 °C.

In turn, `CCCCCn1c(O)nnc1S` came in with a melting point of 146 to 149 °C.

Compound `COc1cc(C=Cc2cc(/C=C/c3ccc(O)c(OC)c3)c([N+](=O)[O-])cc2[N+](=O)[O-])ccc1O` returned a melting point of 251 °C.

In the case of `COc1cccc2c(=O)c(=O)c12`, the melting point was 119 °C.

In turn, `N#CCOc1ccc(C2=NCCS2)cc1` registered a melting point of 83 to 85 °C.

`CCCC(O)CCC=CC=CC#CC#CC=CCO` (stereo unspecified) returned a melting point of 87 °C.

For the compound `COc1ccc(OCC(=O)O)cc1`, the melting point was in the range of 112 to 114 °C.

These data come from a melting point compilation (Tetko et al.).
